Assay results published in the NIST ThermoML archive (doi:10.1021/je800110r).
Numbers after ± are expanded uncertainties.

Settings: 313.14 K, Liquid, Vibrating tube method

SMILES: CCCCCCCCCC [decane]
- mass density (24173 kPa): 733.5 ± 2.1 kg/m3
- mass density (24196 kPa): 733.5 ± 2.1 kg/m3
- mass density (24223 kPa): 733.4 ± 2.1 kg/m3
- mass density (24245 kPa): 733.5 ± 2.1 kg/m3
- mass density (24268 kPa): 733.6 ± 2.1 kg/m3
- mass density (24304 kPa): 733.6 ± 2.1 kg/m3
- mass density (24331 kPa): 733.6 ± 2.1 kg/m3
- mass density (24351 kPa): 733.6 ± 2.1 kg/m3
- mass density (24391 kPa): 733.7 ± 2.1 kg/m3
- mass density (24420 kPa): 733.7 ± 2.1 kg/m3
- mass density (24455 kPa): 733.7 ± 2.1 kg/m3
- mass density (24491 kPa): 733.7 ± 2.1 kg/m3
- mass density (24527 kPa): 733.7 ± 2.1 kg/m3
- mass density (24559 kPa): 733.8 ± 2.1 kg/m3
- mass density (24591 kPa): 733.7 ± 2.1 kg/m3
- mass density (24632 kPa): 733.9 ± 2.1 kg/m3
- mass density (24668 kPa): 733.9 ± 2.1 kg/m3
- mass density (24704 kPa): 733.9 ± 2.1 kg/m3
- mass density (24729 kPa): 733.9 ± 2.1 kg/m3
- mass density (24758 kPa): 734 ± 2.1 kg/m3
- mass density (24787 kPa): 733.9 ± 2.1 kg/m3
- mass density (24824 kPa): 733.9 ± 2.1 kg/m3
- mass density (24854 kPa): 734 ± 2.1 kg/m3
- mass density (24889 kPa): 734 ± 2.1 kg/m3
- mass density (24918 kPa): 734.1 ± 2.1 kg/m3
- mass density (24952 kPa): 734 ± 2.1 kg/m3
- mass density (24983 kPa): 734 ± 2.1 kg/m3
- mass density (25018 kPa): 734.1 ± 2.1 kg/m3
- mass density (25049 kPa): 734.2 ± 2.1 kg/m3
- mass density (25080 kPa): 734.1 ± 2.1 kg/m3
- mass density (25107 kPa): 734.2 ± 2.1 kg/m3
- mass density (25129 kPa): 734.2 ± 2.1 kg/m3
- mass density (25161 kPa): 734.2 ± 2.1 kg/m3
- mass density (25188 kPa): 734.2 ± 2.1 kg/m3
- mass density (25215 kPa): 734.2 ± 2.1 kg/m3
- mass density (25255 kPa): 734.3 ± 2.1 kg/m3
- mass density (25287 kPa): 734.3 ± 2.1 kg/m3
- mass density (25323 kPa): 734.3 ± 2.1 kg/m3
- mass density (25351 kPa): 734.4 ± 2.1 kg/m3
- mass density (25387 kPa): 734.3 ± 2.1 kg/m3
- mass density (25415 kPa): 734.3 ± 2.1 kg/m3
- mass density (25452 kPa): 734.5 ± 2.1 kg/m3
- mass density (25489 kPa): 734.4 ± 2.1 kg/m3
- mass density (25558 kPa): 734.6 ± 2.1 kg/m3
- mass density (25618 kPa): 734.5 ± 2.1 kg/m3
- mass density (25650 kPa): 734.6 ± 2.1 kg/m3
- mass density (25684 kPa): 734.6 ± 2.1 kg/m3
- mass density (25712 kPa): 734.5 ± 2.1 kg/m3
- mass density (25750 kPa): 734.5 ± 2.1 kg/m3
- mass density (25778 kPa): 734.6 ± 2.1 kg/m3
- mass density (25811 kPa): 734.6 ± 2.1 kg/m3
- mass density (25840 kPa): 734.7 ± 2.1 kg/m3
- mass density (25878 kPa): 734.8 ± 2.1 kg/m3
- mass density (27095 kPa): 735.5 ± 2.1 kg/m3
- mass density (27127 kPa): 735.5 ± 2.1 kg/m3
- mass density (27155 kPa): 735.6 ± 2.1 kg/m3
- mass density (27178 kPa): 735.5 ± 2.1 kg/m3
- mass density (27206 kPa): 735.6 ± 2.1 kg/m3
- mass density (27239 kPa): 735.7 ± 2.1 kg/m3
- mass density (27267 kPa): 735.7 ± 2.1 kg/m3
- mass density (27295 kPa): 735.5 ± 2.1 kg/m3
- mass density (27328 kPa): 735.7 ± 2.1 kg/m3
- mass density (27370 kPa): 735.7 ± 2.1 kg/m3
- mass density (27403 kPa): 735.7 ± 2.1 kg/m3
- mass density (27432 kPa): 735.8 ± 2.1 kg/m3
- mass density (27465 kPa): 735.8 ± 2.1 kg/m3
- mass density (27498 kPa): 735.7 ± 2.1 kg/m3
- mass density (27527 kPa): 735.8 ± 2.1 kg/m3
- mass density (27560 kPa): 735.9 ± 2.1 kg/m3
- mass density (27599 kPa): 735.8 ± 2.1 kg/m3
- mass density (27627 kPa): 735.8 ± 2.1 kg/m3
- mass density (27661 kPa): 735.9 ± 2.1 kg/m3
- mass density (27685 kPa): 735.8 ± 2.1 kg/m3
- mass density (27728 kPa): 735.9 ± 2.1 kg/m3
- mass density (27767 kPa): 736 ± 2.1 kg/m3
- mass density (27811 kPa): 736 ± 2.1 kg/m3
- mass density (27850 kPa): 735.9 ± 2.1 kg/m3
- mass density (27898 kPa): 736.1 ± 2.1 kg/m3
- mass density (27932 kPa): 736.2 ± 2.1 kg/m3
- mass density (29093 kPa): 736.8 ± 2.1 kg/m3
- mass density (29131 kPa): 736.9 ± 2.1 kg/m3
- mass density (29195 kPa): 737 ± 2.1 kg/m3
- mass density (29243 kPa): 737 ± 2.1 kg/m3
- mass density (29286 kPa): 736.9 ± 2.1 kg/m3
- mass density (29330 kPa): 737.1 ± 2.1 kg/m3
- mass density (29369 kPa): 737.1 ± 2.1 kg/m3
- mass density (29414 kPa): 737 ± 2.1 kg/m3
- mass density (29452 kPa): 737.1 ± 2.1 kg/m3
- mass density (29496 kPa): 737.2 ± 2.1 kg/m3
- mass density (29524 kPa): 737.1 ± 2.1 kg/m3
- mass density (29568 kPa): 737.2 ± 2.1 kg/m3
- mass density (29611 kPa): 737.2 ± 2.1 kg/m3
- mass density (29645 kPa): 737.3 ± 2.1 kg/m3
- mass density (29684 kPa): 737.2 ± 2.1 kg/m3
- mass density (29729 kPa): 737.2 ± 2.1 kg/m3
- mass density (29763 kPa): 737.3 ± 2.1 kg/m3
- mass density (29809 kPa): 737.3 ± 2.1 kg/m3
- mass density (29845 kPa): 737.3 ± 2.1 kg/m3
- mass density (29878 kPa): 737.3 ± 2.1 kg/m3
- mass density (29923 kPa): 737.4 ± 2.1 kg/m3
- mass density (29963 kPa): 737.5 ± 2.1 kg/m3
- mass density (30003 kPa): 737.5 ± 2.1 kg/m3
- mass density (30049 kPa): 737.5 ± 2.1 kg/m3
- mass density (30089 kPa): 737.6 ± 2.1 kg/m3
- mass density (30124 kPa): 737.6 ± 2.1 kg/m3
- mass density (30171 kPa): 737.5 ± 2.1 kg/m3
- mass density (30212 kPa): 737.5 ± 2.1 kg/m3
- mass density (30248 kPa): 737.6 ± 2.1 kg/m3
- mass density (30281 kPa): 737.7 ± 2.1 kg/m3
- mass density (30319 kPa): 737.6 ± 2.1 kg/m3
- mass density (30352 kPa): 737.7 ± 2.1 kg/m3
- mass density (30401 kPa): 737.8 ± 2.1 kg/m3
- mass density (30433 kPa): 737.7 ± 2.1 kg/m3
- mass density (30466 kPa): 737.8 ± 2.1 kg/m3
- mass density (30504 kPa): 737.8 ± 2.1 kg/m3
- mass density (30542 kPa): 737.8 ± 2.1 kg/m3
- mass density (30575 kPa): 737.8 ± 2.1 kg/m3
- mass density (30614 kPa): 737.9 ± 2.1 kg/m3
- mass density (31015 kPa): 738.1 ± 2.1 kg/m3
- mass density (31049 kPa): 738 ± 2.1 kg/m3
- mass density (31124 kPa): 738.2 ± 2.1 kg/m3
- mass density (31165 kPa): 738.2 ± 2.1 kg/m3
- mass density (31205 kPa): 738.3 ± 2.1 kg/m3
- mass density (31251 kPa): 738.3 ± 2.1 kg/m3
- mass density (31303 kPa): 738.3 ± 2.1 kg/m3
- mass density (31332 kPa): 738.3 ± 2.1 kg/m3
- mass density (31379 kPa): 738.3 ± 2.1 kg/m3
- mass density (32818 kPa): 739.4 ± 2.1 kg/m3
- mass density (32847 kPa): 739.2 ± 2.1 kg/m3
- mass density (32891 kPa): 739.4 ± 2.1 kg/m3
- mass density (32920 kPa): 739.3 ± 2.1 kg/m3
- mass density (32965 kPa): 739.4 ± 2.1 kg/m3
- mass density (33007 kPa): 739.5 ± 2.1 kg/m3
- mass density (33037 kPa): 739.5 ± 2.1 kg/m3
- mass density (33079 kPa): 739.5 ± 2.1 kg/m3
- mass density (33103 kPa): 739.6 ± 2.1 kg/m3
- mass density (33135 kPa): 739.5 ± 2.1 kg/m3
